Results taken from PubChem BioAssay (NCI).
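Five compound concentrations were applied to cells in 96-well plates for 48 hours; endpoints were derived by simple linear interpolation of the resulting dose-response curve. GI50 marks 50% less growth. At the TGI there is no net growth.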

Key:
Assay in all cases: DTP human tumour cell line panel, 48 h
[1] = system: 786-0 renal
[2] = system: A498 renal
[3] = system: ACHN renal
[4] = system: BT-549 breast
[5] = system: CAKI-1 renal
[6] = system: CCRF-CEM leukemia
[7] = system: COLO 205 colon
[8] = system: DU-145 prostate
[9] = system: EKVX NSCLC
[10] = system: HCC-2998 colon
[11] = system: HCT-116 colon
[12] = system: HCT-15 colon
[13] = system: HL-60(TB) leukemia
[14] = system: HOP-62 NSCLC
[15] = system: HOP-92 NSCLC
[16] = system: HS 578T breast
[17] = system: HT29 colon
[18] = system: IGROV1 ovarian
[19] = system: K-562 leukemia
[20] = system: KM12 colon
[21] = system: LOX IMVI melanoma
[22] = system: M14 melanoma
[23] = system: MCF7 breast
[24] = system: MDA-MB-231 breast
[25] = system: MDA-MB-435
[26] = system: MOLT-4 leukemia
[27] = system: NCI-H226 lung
[28] = system: NCI-H23 lung
[29] = system: NCI-H460 lung
[30] = system: NCI/ADR-RES ovarian
[31] = system: OVCAR-4 ovarian
[32] = system: OVCAR-8 ovarian
[33] = system: PC-3 prostate
[34] = system: RPMI-8226 leukemia
[35] = system: RXF 393 renal
[36] = system: SF-268 CNS
[37] = system: SF-295 CNS
[38] = system: SF-539 CNS
[39] = system: SK-MEL-2 melanoma
[40] = system: SK-MEL-28 melanoma
[41] = system: SK-MEL-5 melanoma
[42] = system: SK-OV-3 ovarian
[43] = system: SNB-19 CNS
[44] = system: SNB-75 CNS
[45] = system: SR leukemia
[46] = system: SW-620 colon
[47] = system: T-47D breast
[48] = system: TK-10 renal
[49] = system: U251 CNS
[50] = system: UACC-257 melanoma
[51] = system: UACC-62 melanoma
[52] = system: UO-31 renal
[53] = system: A549 NSCLC
[54] = system: MALME-3M melanoma
[55] = system: NCI-H522 lung
[56] = system: OVCAR-3 ovarian
[57] = system: OVCAR-5 ovarian
[58] = system: SN12C renal

In the case of O=C(O)c1ccc2nc(-c3ccccn3)c(-c3ccccn3)nc2c1, the TGI [1] is reported as greater than 100 µM, the TGI [2] is reported as greater than 100 µM and the TGI [3] is reported as greater than 100 µM. For the same molecule, the TGI [4] was greater than 100 µM, the TGI [5] was greater than 100 µM and the TGI [6] was greater than 100 µM. For the same molecule, the TGI [7] was greater than 100 µM, the TGI [8] was greater than 100 µM and the TGI [9] was greater than 100 µM. For the same molecule, the TGI [10] was greater than 100 µM, the TGI [11] was greater than 100 µM and the TGI [12] was greater than 100 µM. It also gave a TGI [13] greater than 100 µM, a TGI [14] greater than 100 µM and a TGI [15] greater than 100 µM. For the same molecule, the TGI [16] was greater than 100 µM, the TGI [17] was greater than 100 µM and the TGI [18] was greater than 100 µM. For the same molecule, the TGI [19] was greater than 100 µM, the TGI [20] was greater than 100 µM and the TGI [21] was greater than 100 µM. It also gave a TGI [22] greater than 100 µM, a TGI [23] greater than 100 µM and a TGI [24] greater than 100 µM. The TGI [25] was greater than 100 µM, the TGI [26] was greater than 100 µM and the TGI [27] was greater than 100 µM. It also gave a TGI [28] greater than 100 µM, a TGI [29] greater than 100 µM and a TGI [30] greater than 100 µM. The TGI [31] was greater than 100 µM, the TGI [32] was greater than 100 µM and the TGI [33] was greater than 100 µM. It also gave a TGI [34] greater than 100 µM, a TGI [35] greater than 100 µM and a TGI [36] greater than 100 µM. The TGI [37] was greater than 100 µM, the TGI [38] was greater than 100 µM and the TGI [39] was greater than 100 µM. It also gave a TGI [40] greater than 100 µM, a TGI [41] greater than 100 µM and a TGI [42] greater than 100 µM. For the same molecule, the TGI [43] was greater than 100 µM, the TGI [44] was greater than 100 µM and the TGI [45] was greater than 100 µM. For the same molecule, the TGI [46] was greater than 100 µM, the TGI [47] was greater than 100 µM and the TGI [48] was greater than 100 µM. It also gave a TGI [49] greater than 100 µM, a TGI [50] greater than 100 µM and a TGI [51] greater than 100 µM. It also gave a TGI [52] greater than 100 µM.
With CCc1ccc2cc3c(ccc4ccccc43)c3c2c1CC3 the GI50 [1] was greater than 100 µM, the TGI [1] was greater than 100 µM and the GI50 [2] was greater than 100 µM. The TGI [2] was greater than 100 µM, the GI50 [53] was greater than 100 µM and the TGI [53] was greater than 100 µM. The GI50 [3] was greater than 100 µM, the TGI [3] was greater than 100 µM and the GI50 [4] was greater than 100 µM. It also gave a TGI [4] greater than 100 µM, a GI50 [5] greater than 100 µM and a TGI [5] greater than 100 µM. The GI50 [6] was greater than 100 µM, the TGI [6] was greater than 100 µM and the GI50 [7] was greater than 100 µM. For the same molecule, the TGI [7] was greater than 100 µM, the GI50 [8] was greater than 100 µM and the TGI [8] was greater than 100 µM. For the same molecule, the GI50 [10] was greater than 100 µM, the TGI [10] was greater than 100 µM and the GI50 [11] was greater than 100 µM. For the same molecule, the TGI [11] was greater than 100 µM, the GI50 [12] was greater than 100 µM and the TGI [12] was greater than 100 µM. For the same molecule, the GI50 [14] was greater than 100 µM, the TGI [14] was greater than 100 µM and the GI50 [15] was greater than 100 µM. It also gave a TGI [15] greater than 100 µM, a GI50 [16] greater than 100 µM and a TGI [16] greater than 100 µM. The GI50 [17] was greater than 100 µM, the TGI [17] was greater than 100 µM and the GI50 [18] was greater than 100 µM. The TGI [18] was greater than 100 µM, the GI50 [19] was greater than 100 µM and the TGI [19] was greater than 100 µM. It also gave a GI50 [20] greater than 100 µM, a TGI [20] greater than 100 µM and a GI50 [21] greater than 100 µM. For the same molecule, the TGI [21] was greater than 100 µM, the GI50 [22] was greater than 100 µM and the TGI [22] was greater than 100 µM. The GI50 [54] was greater than 100 µM, the TGI [54] was greater than 100 µM and the GI50 [23] was 0.6 µM. For the same molecule, the TGI [23] was greater than 100 µM, the GI50 [24] was greater than 100 µM and the TGI [24] was greater than 100 µM. For the same molecule, the GI50 [25] was greater than 100 µM, the TGI [25] was greater than 100 µM and the GI50 [26] was greater than 100 µM. For the same molecule, the TGI [26] was greater than 100 µM, the GI50 [27] was greater than 100 µM and the TGI [27] was greater than 100 µM. For the same molecule, the GI50 [28] was greater than 100 µM, the TGI [28] was greater than 100 µM and the GI50 [29] was greater than 100 µM. It also gave a TGI [29] greater than 100 µM, a GI50 [55] greater than 100 µM and a TGI [55] greater than 100 µM. The GI50 [30] was greater than 100 µM, the TGI [30] was greater than 100 µM and the GI50 [56] was greater than 100 µM. It also gave a TGI [56] greater than 100 µM, a GI50 [31] greater than 100 µM and a TGI [31] greater than 100 µM. The GI50 [57] was greater than 100 µM, the TGI [57] was greater than 100 µM and the GI50 [32] was greater than 100 µM. The TGI [32] was greater than 100 µM, the GI50 [33] was greater than 100 µM and the TGI [33] was greater than 100 µM. For the same molecule, the GI50 [34] was greater than 100 µM, the TGI [34] was greater than 100 µM and the GI50 [35] was greater than 100 µM. For the same molecule, the TGI [35] was greater than 100 µM, the GI50 [36] was greater than 100 µM and the TGI [36] was greater than 100 µM. For the same molecule, the GI50 [38] was greater than 100 µM, the TGI [38] was greater than 100 µM and the GI50 [39] was greater than 100 µM. For the same molecule, the TGI [39] was greater than 100 µM, the GI50 [40] was greater than 100 µM and the TGI [40] was greater than 100 µM. The GI50 [41] was greater than 100 µM, the TGI [41] was greater than 100 µM and the GI50 [42] was greater than 100 µM. It also gave a TGI [42] greater than 100 µM, a GI50 [58] greater than 100 µM and a TGI [58] greater than 100 µM. For the same molecule, the GI50 [43] was greater than 100 µM, the TGI [43] was greater than 100 µM and the GI50 [44] was greater than 100 µM. It also gave a TGI [44] greater than 100 µM, a GI50 [45] greater than 100 µM and a TGI [45] greater than 100 µM. The GI50 [46] was greater than 100 µM, the TGI [46] was greater than 100 µM and the GI50 [47] was greater than 100 µM. The TGI [47] was greater than 100 µM, the GI50 [48] was greater than 100 µM and the TGI [48] was greater than 100 µM. It also gave a GI50 [51] greater than 100 µM, a TGI [51] greater than 100 µM and a GI50 [52] greater than 100 µM. For the same molecule, the TGI [52] was greater than 100 µM.
